BindingDB's records for doi:10.7270/Q2S180X7 (Vanderbilt Screening Center For Gpcrs, Ion Channels and …, 2009)

Molecular target: T1, Muscarinic acetylcholine receptor M5 (Homo sapiens, UniProt P08912)
T1 sequence (P08912 whole entry): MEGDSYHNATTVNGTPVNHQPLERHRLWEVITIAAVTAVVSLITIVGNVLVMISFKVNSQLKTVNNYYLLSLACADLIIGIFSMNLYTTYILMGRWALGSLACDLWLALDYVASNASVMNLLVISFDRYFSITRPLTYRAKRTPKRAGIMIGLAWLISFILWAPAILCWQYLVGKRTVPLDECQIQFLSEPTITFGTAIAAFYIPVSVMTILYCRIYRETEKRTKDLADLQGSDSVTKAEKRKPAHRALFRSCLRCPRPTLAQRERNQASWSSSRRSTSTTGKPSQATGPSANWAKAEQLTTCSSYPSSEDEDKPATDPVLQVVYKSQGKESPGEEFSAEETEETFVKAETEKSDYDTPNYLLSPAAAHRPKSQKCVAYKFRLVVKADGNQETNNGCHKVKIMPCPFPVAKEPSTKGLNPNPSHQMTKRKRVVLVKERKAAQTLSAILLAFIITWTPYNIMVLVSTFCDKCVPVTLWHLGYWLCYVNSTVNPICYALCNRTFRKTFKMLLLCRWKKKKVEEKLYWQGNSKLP
Assay: binding competition at muscarinic M5 – biochemical, [3H]N-methylscopolamine (AID 2192)
Conditions: inactive by the depositor's call

COc1ccc(CN2C(=O)C(=O)c3cc(OC(F)(F)F)ccc32)cc1 [VU0238429]
EC50: 1710 nM
